The values below come from US20240376099A1, “COMPOUNDS AND COMPOSITIONS AS INHIBITORS OF ENDOSOMAL TOLL-LIKE RECEPTORS” (Novartis AG, priority 2016, published 2024).

A word on the IC50: it is the concentration that inhibits the measured activity by half.

SMILES strings stand for the structures.

The assay concerns the target T1, TLR9 (Homo sapiens, UniProt Q9NR96).
T1 construct: Fresh blood was collected from normal human donors; endogenous in cells; host or cells: human PBMCs from fresh donor blood
T1 sequence (Q9NR96 26-1032): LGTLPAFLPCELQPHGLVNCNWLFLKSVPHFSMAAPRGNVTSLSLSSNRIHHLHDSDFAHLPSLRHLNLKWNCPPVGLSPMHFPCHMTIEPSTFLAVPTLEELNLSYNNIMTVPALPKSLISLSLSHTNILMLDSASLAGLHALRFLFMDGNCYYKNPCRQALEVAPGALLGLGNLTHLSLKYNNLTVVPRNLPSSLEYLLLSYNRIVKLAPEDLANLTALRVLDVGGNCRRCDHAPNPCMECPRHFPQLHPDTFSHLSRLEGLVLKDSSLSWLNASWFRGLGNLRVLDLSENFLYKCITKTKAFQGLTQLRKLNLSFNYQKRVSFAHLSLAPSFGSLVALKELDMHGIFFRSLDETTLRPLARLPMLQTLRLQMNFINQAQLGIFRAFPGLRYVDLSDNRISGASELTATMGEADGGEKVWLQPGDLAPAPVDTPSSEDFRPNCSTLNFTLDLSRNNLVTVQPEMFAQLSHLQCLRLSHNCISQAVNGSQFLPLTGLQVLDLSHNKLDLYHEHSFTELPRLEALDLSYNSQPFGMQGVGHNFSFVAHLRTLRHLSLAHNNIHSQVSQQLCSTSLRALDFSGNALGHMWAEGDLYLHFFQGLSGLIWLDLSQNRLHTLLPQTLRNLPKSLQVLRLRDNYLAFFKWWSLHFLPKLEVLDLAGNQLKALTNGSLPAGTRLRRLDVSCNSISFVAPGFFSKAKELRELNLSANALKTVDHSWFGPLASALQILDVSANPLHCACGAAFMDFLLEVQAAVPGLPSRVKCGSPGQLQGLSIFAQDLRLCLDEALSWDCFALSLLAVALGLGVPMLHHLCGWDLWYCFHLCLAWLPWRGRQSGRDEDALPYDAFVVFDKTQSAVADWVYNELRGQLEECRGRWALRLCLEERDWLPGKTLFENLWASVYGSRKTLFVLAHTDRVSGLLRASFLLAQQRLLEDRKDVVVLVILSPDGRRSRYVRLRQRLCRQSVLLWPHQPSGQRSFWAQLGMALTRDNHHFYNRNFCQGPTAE
As to the kind of experiment: huPBMC TLR9 Antagonist IFNα Assay. The conditions noted are these: human PBMCs stimulated with ODN2216 0.3 μM, 14-16 hrs; IFNα2b AlphaLISA read-out. Type of assay: cell-based. The method in brief: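 Human PBMCs from fresh donor blood (150,000 cells/well) stimulated 14–16 h at 37 °C with DOTAP-complexed ssRNA40 (final 1 μg/ml for TLR8, 10 μg/mL for TLR7) or ODN2216 (final 0.3 μM, TLR9), 0.25% DMSO, ten-point 1/3 compound dilutions. Supernatant IL-6 read by HTRF (TLR8); IFNα by IFNα2b AlphaLISA (TLR7/TLR9).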
(In general: In Alpha technology, singlet oxygen from a donor bead excites a nearby acceptor bead.)
On to `Cc1cc(N2CCc3c(c(C)nn3CC34CCC(N5CC[C@H](O)C5)(CC3)CC4)C2)c2cnn(C)c2n1` [compound 75, (S)-1-(4-((5-(1,6-dimethyl-1H-pyrazolo[3,4-b]pyridin-4-yl)-3-methyl-4,5,6,7-tetrahydro-1H-pyrazolo[4,3-c]pyridin-1-yl)methyl)bicyclo[2.2.2]octan-1-yl)pyrrolidin-3-ol], for which the half-maximal inhibitory concentration (IC50) came out at 963 nM. Consider `Cc1cc(N2CCc3c(c(C)nn3CC34CCC(O)(CC3)CC4)C2)c2cnn(C)c2n1` [compound 46, 4-((5-(1,6-dimethyl-1H-pyrazolo[3,4-b]pyridin-4-yl)-3-methyl-4,5,6,7-tetrahydro-1H-pyrazolo[4,3-c]pyridin-1-yl)methyl)bicyclo[2.2.2]octan-1-ol], for which the half-maximal inhibitory concentration (IC50) was above 10000 nM. With `Cc1cc(N2CCc3c(c(C)nn3CC34CCC(NC(C)CO)(CC3)CC4)C2)c2cnn(C)c2n1` (stereo not drawn) [compound 56, 2-((4-((5-(1,6-dimethyl-1H-pyrazolo[3,4-b]pyridin-4-yl)-3-methyl-4,5,6,7-tetrahydro-1H-pyrazolo[4,3-c]pyridin-1-yl)methyl)bicyclo[2.2.2]octan-1-yl)amino)propan-1-ol] the figure was 680 nM. The result for `CCOCCNC12CCC(Cn3nc(C)c4c3CCN(c3cc(C)nc5c3cnn5C)C4)(CC1)CC2` [compound 71, 4-((5-(1,6-dimethyl-1H-pyrazolo[3,4-b]pyridin-4-yl)-3-methyl-4,5,6,7-tetrahydro-1H-pyrazolo[4,3-c]pyridin-1-yl)methyl)-N-(2-ethoxyethyl)bicyclo[2.2.2]octan-1-amine] reads 488 nM.

As for `Cc1cc(N2CCc3c(c(C)nn3CC34CCC(N(C)C5CCC5)(CC3)CC4)C2)c2cnn(C)c2n1` [compound 79, N-cyclobutyl-4-((5-(1,6-dimethyl-1H-pyrazolo[3,4-b]pyridin-4-yl)-3-methyl-4,5,6,7-tetrahydro-1H-pyrazolo[4,3-c]pyridin-1-yl)methyl)-N-methylbicyclo[2.2.2]octan-1-amine], the concentration for half-maximal inhibition (IC50) was 64 nM. With `Cc1cc(N2CCc3c(c(C)nn3CC34CCC(NC(=O)OC5(C)CC5)(CC3)CC4)C2)c2cnn(C)c2n1` [Compound No. 51, 1-methylcyclopropyl (4-((5-(1,6-dimethyl-1H-pyrazolo[3,4-b]pyridin-4-yl)-3-methyl-4,5,6,7-tetrahydro-1H-pyrazolo[4,3-c]pyridin-1-yl)methyl)bicyclo[2.2.2]octan-1-yl)carbamate] the figure was 7550 nM; with `Cc1cc(N2CCc3c(c(C)nn3CC34CCC(N5CCC5)(CC3)CC4)C2)c2cnn(C)c2n1` [compound 64, 1-((4-(azetidin-1-yl)bicyclo[2.2.2]octan-1-yl)methyl)-5-(1,6-dimethyl-1H-pyrazolo[3,4-b]pyridin-4-yl)-3-methyl-4,5,6,7-tetrahydro-1H-pyrazolo[4,3-c]pyridine], 443 nM; with `Cc1cc(N2CCc3c(c(C)nn3CCC34CCC(N)(CC3)CC4)C2)c2cnn(C)c2n1` [compound 91, 4-(2-(5-(1,6-dimethyl-1H-pyrazolo[3,4-b]pyridin-4-yl)-3-methyl-4,5,6,7-tetrahydro-1H-pyrazolo[4,3-c]pyridin-1-yl)ethyl)bicyclo[2.2.2]octan-1-amine], 215 nM.

Consider `COc1ccc(Cn2ncc3c(N4CCc5c(c(C)nn5CC56CCC(N)(CC5)CC6)C4)cc(C)nc32)cc1` [Compound No. 53, 4-((5-(1-(4-methoxybenzyl)-6-methyl-1H-pyrazolo[3,4-b]pyridin-4-yl)-3-methyl-4,5,6,7-tetrahydro-1H-pyrazolo[4,3-c]pyridin-1-yl)methyl)bicyclo[2.2.2]octan-1-amine], for which the IC50 is 1730 nM. Regarding `Cc1cc(N2CCc3c(c(C)nn3CC34CCC(N)(CC3)CC4)C2)c2ccnc(C)c2n1` [compound 92, 4-((5-(2,8-dimethyl-1,7-naphthyridin-4-yl)-3-methyl-4,5,6,7-tetrahydro-1H-pyrazolo[4,3-c]pyridin-1-yl)methyl)bicyclo[2.2.2]octan-1-amine], the IC50 was found to be 94 nM.

Consider `Cc1cc(N2CCc3c(c(C)nn3CC34CCC(N5C[C@H](O)[C@@H](O)C5)(CC3)CC4)C2)c2cnn(C)c2n1` [compound 80, (3S,4S)-1-(4-((5-(1,6-dimethyl-1H-pyrazolo[3,4-b]pyridin-4-yl)-3-methyl-4,5,6,7-tetrahydro-1H-pyrazolo[4,3-c]pyridin-1-yl)methyl)bicyclo[2.2.2]octan-1-yl)pyrrolidine-3,4-diol], for which the IC50 came out at 249 nM.

Turning to `Cc1cc(N2CCc3nn(CC45CC(N)(C4)C5)c(C)c3C2)c2cnn(C)c2n1` [compound 52, 3-((5-(1,6-dimethyl-1H-pyrazolo[3,4-b]pyridin-4-yl)-3-methyl-4,5,6,7-tetrahydro-2H-pyrazolo[4,3-c]pyridin-2-yl)methyl)bicyclo[1.1.1]pentan-1-amine], the IC50 is 4860 nM.

Regarding `CNC12CCC(Cn3nc(C)c4c3CCN(c3cc(C)nc5c3cnn5C)C4)(CC1)CC2` [Compound No. 50, 4-((5-(1,6-dimethyl-1H-pyrazolo[3,4-b]pyridin-4-yl)-3-methyl-4,5,6,7-tetrahydro-1H-pyrazolo[4,3-c]pyridin-1-yl)methyl)-N-methylbicyclo[2.2.2]octan-1-amine], the concentration for half-maximal inhibition (IC50) was 376 nM. Consider `Cc1cc(N2CCc3c(c(C)nn3CC34CCC(N5CCOCC5)(CC3)CC4)C2)c2cnn(C)c2n1` [Compound No. 59, 4-(4-((5-(1,6-dimethyl-1H-pyrazolo[3,4-b]pyridin-4-yl)-3-methyl-4,5,6,7-tetrahydro-1H-pyrazolo[4,3-c]pyridin-1-yl)methyl)bicyclo[2.2.2]octan-1-yl)morpholine], for which the IC50 was 2170 nM. The result for `Cc1cc(N2CCc3c(c(C)nn3CC34CCC(N5CCCC5)(CC3)CC4)C2)c2ccncc2n1` [compound 86, 2-methyl-4-(3-methyl-1-((4-(pyrrolidin-1-yl)bicyclo[2.2.2]octan-1-yl)methyl)-6,7-dihydro-1H-pyrazolo[4,3-c]pyridin-5(4H)-yl)-1,7-naphthyridine] reads 2740 nM; that for `Cc1cc(N2CCc3c(c(C)nn3CC34CCC(N(C)C(=O)OC(C)(C)C)(CC3)CC4)C2)c2cnn(C)c2n1` [Compound No. 49, tert-butyl (4-((5-(1,6-dimethyl-1H-pyrazolo[3,4-b]pyridin-4-yl)-3-methyl-4,5,6,7-tetrahydro-1H-pyrazolo[4,3-c]pyridin-1-yl)methyl)bicyclo[2.2.2]octan-1-yl)(methyl)carbamate], 3950 nM; that for `Cc1cc(N2CCc3c(c(C)nn3CC34CCC(N)(CC3)CC4)C2)c2cn[nH]c2n1` [Compound No. 2, 4-((3-methyl-5-(6-methyl-1H-pyrazolo[3,4-b]pyridin-4-yl)-4,5,6,7-tetrahydro-1H-pyrazolo[4,3-c]pyridin-1-yl)methyl)bicyclo[2.2.2]octan-1-amine], 3130 nM. With `Cc1nn(CC23CCC(N)(CC2)CC3)c2c1CN(c1ccnc(-c3ccc(C#N)cc3)c1)CC2` [Compound No. 84, 4-(4-(1-((4-aminobicyclo[2.2.2]octan-1-yl)methyl)-3-methyl-6,7-dihydro-1H-pyrazolo[4,3-c]pyridin-5(4H)-yl)pyridin-2-yl)benzonitrile], the IC50 came to 1840 nM. As for `Cc1nn(CC23CCC(N4CCCC4)(CC2)CC3)c2c1CN(c1ccnc(-c3ccccc3)c1)CC2` [compound 85, 3-methyl-5-(2-phenylpyridin-4-yl)-1-((4-(pyrrolidin-1-yl)bicyclo[2.2.2]octan-1-yl)methyl)-4,5,6,7-tetrahydro-1H-pyrazolo[4,3-c]pyridine], the IC50 was found to be 569 nM. With `CCOCCN(CCOCC)C12CCC(Cn3nc(C)c4c3CCN(c3cc(C)nc5c3cnn5C)C4)(CC1)CC2` [compound 72, 4-((5-(1,6-dimethyl-1H-pyrazolo[3,4-b]pyridin-4-yl)-3-methyl-4,5,6,7-tetrahydro-1H-pyrazolo[4,3-c]pyridin-1-yl)methyl)-N,N-bis(2-ethoxyethyl)bicyclo[2.2.2]octan-1-amine] the figure was 815 nM; with `Cc1cc(N2CCc3c(c(C)nn3CC34CCC(N(C)C5COC5)(CC3)CC4)C2)c2cnn(C)c2n1` [Compound No. 77, N-(4-((5-(1,6-dimethyl-1H-pyrazolo[3,4-b]pyridin-4-yl)-3-methyl-4,5,6,7-tetrahydro-1H-pyrazolo[4,3-c]pyridin-1-yl)methyl)bicyclo[2.2.2]octan-1-yl)-N-methyloxetan-3-amine], 179 nM.
